A word on the DC50: it is the concentration giving 50% degradation. A high value points to degradation only at high concentration. For orientation: Dmax means the greatest extent of degradation seen. High values mean a fuller loss of target, low ones a partial loss of target.

The target of one experiment is T1, L858R/T790M/C797S EGFR (Homo sapiens, UniProt P00533, C797S/L858R/T790M).
T1 construct: expressed in transfected cells; host or cells: H1975 clone #25 (lentiviral over-expression, endogenous EGFR knocked out by sgRNA)
T1 sequence (P00533 25-1210 T790M/C797S/L858R): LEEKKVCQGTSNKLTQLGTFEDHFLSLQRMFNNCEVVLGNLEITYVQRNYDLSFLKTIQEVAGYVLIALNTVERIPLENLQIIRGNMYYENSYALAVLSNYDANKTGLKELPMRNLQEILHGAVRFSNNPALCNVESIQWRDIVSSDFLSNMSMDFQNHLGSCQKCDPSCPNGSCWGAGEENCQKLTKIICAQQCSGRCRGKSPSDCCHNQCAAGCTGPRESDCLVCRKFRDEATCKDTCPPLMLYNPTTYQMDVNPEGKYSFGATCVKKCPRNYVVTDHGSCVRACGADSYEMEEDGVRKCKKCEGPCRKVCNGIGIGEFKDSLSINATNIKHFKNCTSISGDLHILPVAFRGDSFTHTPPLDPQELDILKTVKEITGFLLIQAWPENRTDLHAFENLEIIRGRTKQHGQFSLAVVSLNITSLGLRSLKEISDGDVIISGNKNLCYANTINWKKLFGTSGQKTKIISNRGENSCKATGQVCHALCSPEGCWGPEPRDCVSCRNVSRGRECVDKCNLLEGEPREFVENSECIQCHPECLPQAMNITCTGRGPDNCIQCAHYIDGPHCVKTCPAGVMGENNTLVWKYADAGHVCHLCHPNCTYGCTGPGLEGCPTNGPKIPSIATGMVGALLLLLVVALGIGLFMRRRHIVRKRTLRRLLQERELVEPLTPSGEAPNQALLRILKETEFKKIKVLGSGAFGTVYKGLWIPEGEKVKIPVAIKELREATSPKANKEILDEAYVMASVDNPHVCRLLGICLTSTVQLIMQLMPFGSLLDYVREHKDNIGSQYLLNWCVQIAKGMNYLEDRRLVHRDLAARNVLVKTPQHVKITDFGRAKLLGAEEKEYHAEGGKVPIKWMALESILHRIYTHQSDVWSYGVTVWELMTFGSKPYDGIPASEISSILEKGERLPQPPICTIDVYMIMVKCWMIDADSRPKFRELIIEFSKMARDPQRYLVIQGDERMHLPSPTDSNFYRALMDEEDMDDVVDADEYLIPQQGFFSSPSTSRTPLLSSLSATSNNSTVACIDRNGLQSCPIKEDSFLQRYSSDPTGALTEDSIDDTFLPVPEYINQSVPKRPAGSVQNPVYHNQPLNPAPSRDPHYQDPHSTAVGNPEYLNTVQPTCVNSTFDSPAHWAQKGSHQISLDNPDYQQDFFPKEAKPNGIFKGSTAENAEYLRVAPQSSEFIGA
The experiment can be described thus: EGFR degradation HTRF assay in H1975-clone #25 (LTC) cells. The experiment is classed as cell-based. Conditions: 16h treatment; for DC50: H1975 # 25-LTC (L858R/T790M/C797S), HTRF; for Dmax: NCI-H1975, H1975 # 25-LTC (L858R/T790M/C797S), maximum percentage of degradation. The text has this: (§1) H1975-clone #28(Del19/T790M/C797S, or abbr: DTC), H1975-clone #23(Del19/C797S, or abbr: DC), H1975-clone #25(L858R/T790M/C797S, or abbr: LTC) and H1975-clone #8 (L858R/C797S, or abbr: LC). EGFR-Del19:T790M/C797S, EGFR-Del19/C797S, EGFR-L858R/T790M/C797S and EGFR-L858R/C797S were stably expressed in H1975 cell lines by lentivirus-mediated over-expression, respectively. The EGFR over-expressed cells then underwent knockout, in which the EGFR targeting sgRNA was designed to only target the endogenous EGFR copies and preserve the exogenous EGFR copies. Followed by the knockout, the edited H1975 cells were seeded in 96 well plates at the concentration of […], cultured for about 2 weeks to allow single clones formation. The formed clones were screened by DNA sequencing and whole exon sequencing analysis for the desired edition. H1975-clone #28, H1975-clone #23, H1975-clone #25 and H1975-clone #8 were finally confirmed as homozygous Del19/T790M/C797S EGFR, Dell9/C797S EGFR, L858R/T790M/C797S EGFR and L858R/C797S EGFR clones, respectively.
(§2) H1975-#25, H1975-#28, H1975-#23 and H1975-#8 cells are treated with compounds diluted in 0.2% DMSO cell culture medium on day 2, incubate for 16h, 37° C., 5% CO2. the final concentration of compounds in all assay is start with 10 uM, 5-fold dilution, total 8 doses were included.
(§3) After 16h treatment, add HTRF lysis buffer to each well; seal the plate and incubate 1 hour at room temperature on a plate shaker; Once the cells are lysed, 16 μL of cell lysate are transferred to a PE 384-well HTRF detection plate; 4 μL of pre-mixed HTRF antibodies are added to each well; Cover the plate with a plate sealer, spin 1000 rpm for 1 min, Incubate overnight at room temperature; Read on BMG PheraStar with HTRF protocol (337 nm-665 nm-620 nm).
(§4) The IC50 (DC50) value of a compound can be obtained by fitting the following equation
(§5) Y=Bottom+(TOP−Bottom)/(1+((IC50/X)^hillslope))
(§6) Wherein, X and Y are known values, and IC50, Hillslope, Top and Bottom are the parameters obtained by fitting with software. Y is the inhibition percentage (calculated from the equation), X is the concentration of the compound: IC50 is the concentration of the compound when the 50% inhibition is reached. The smaller the IC50 value is, the stronger the inhibitory ability of the compound is. Vice versa, the higher the IC50 value is, the weaker the ability the inhibitory ability of the compound is: Hillslope represents the slope of the fitted curve, generally around 1*; Bottom represents the minimum value of the curve obtained by data fitting, which is generally 0%±20%; Top represents the maximum value of the curve obtained by data fitting, which is generally 100%±20%. The experimental data were fitted by calculating and analyzing with Dotmatics data analysis software.

A further experiment deals with Del19/T790M/C797S EGFR. The experiment can be described thus: EGFR degradation HTRF assay in H1975-clone #28 (DTC) cells. Format: cell-based. Conditions: H1975 # 28 DTC (Del19/T790M/C797S), 16h treatment; for DC50: HTRF; for Dmax (%): maximum percentage of degradation.
Description: as §1, §2, §3, §4, §5, §6
(Time-resolved FRET reads energy transfer from a long-lived donor to a nearby acceptor.)

Consider `Cc1cc2cc(n1)-c1cnn(C)c1OCCC[C@@H](C)CN1/C(=N/C2=O)Nc2ccc(N3CCN(C(=O)[C@@H]4CN(c5cc(F)c([C@H]6CCC(=O)NC6=O)c(F)c5)CC4(C)C)CC3)cc21` [Example 326, (R)-3-(4-((S)-3,3-dimethyl-4-(4-((R,E)-1^1,2^6,7-trimethyl-3-oxo-5^2,5′-dihydro-1^1H,5^1H-11-oxa-4-aza-5(2,1)-benzo[d]imidazola-2(2,4)-pyridina-1(4,5)-pyrazolacycloundecaphane-5^6-yl)piperazine-1-carbonyl)pyrrolidin-1-yl)-2,6-difluorophenyl)piperidine-2,6-dione], for which, at L858R/T790M/C797S EGFR, half-maximal degradation (DC50) was put at 1.88 nM and the Dmax came out at 88.9%. In the experiment on Del19/T790M/C797S EGFR, it took 1.71 nM to reach half-maximal degradation (DC50) and the “Dmax (%)” value turned out to be 81.61%.
For `Cc1cc2cc(n1)-c1cnn(C)c1OCCC[C@@H](C)CN1/C(=N/C2=O)Nc2ccc(N3CCN(C4CCN(c5ccc(C6CCC(=O)NC6=O)nc5)CC4)CC3=O)cc21` (stereo partly drawn) [Example 395, 3-(5-(4-(3-oxo-4-((R,E)-1^1,2^6,7-trimethyl-3-oxo-5^2,5^3-dihydro-1^1H,5^1H-11-oxa-4-aza-5(2,1)-benzo[d]imidazola-2(2,4)-pyridina-1(4,5)-pyrazolacycloundecaphane-5^6-yl)piperazin-1-yl)piperidin-yl-)pyridin-2-yl)piperidine-2,6-dione] the same measures were 1.02 nM, 84.5%, 0.526 nM and 77.96%.
At L858R/T790M/C797S EGFR, `Cc1cc2cc(n1)-c1cnn(C)c1OCCC[C@@H](C)CN1/C(=N/C2=O)Nc2ccc(N3CCN(CCN(C)c4ccc5c(c4)CN([C@H]4CCC(=O)NC4=O)C5=O)CC3)cc21` [Example 405, (S)-3-(5-(methyl(2-(4-((R,E)-1^1,2^6,7-trimethyl-3-oxo-5^2,5^3-dihydro-1^1H,5^1H-11-oxa-4-aza-5(2,1)-benzo[d]imidazola-2(2,4)-pyridina-1(4,5)-pyrazolacycloundecaphane-5^6-yl)piperazin-1-yl)ethyl)amino)-1-oxoisoindolin-2-yl)piperidine-2,6-dione] came in with a DC50 of 0.677 nM and a Dmax of 80.5%. In addition, in the experiment with Del19/T790M/C797S EGFR, half-maximal degradation (DC50) was put at 1.26 nM and the “Dmax (%)” value was 78.67%.
The matching figures for `Cc1cc2cc(n1)-c1cnn(C)c1OCCC[C@@H](C)CN1/C(=N/C2=O)Nc2ccc(C(=O)N(C)C3CN(CCc4cc(F)c([C@H]5CCC(=O)NC5=O)c(F)c4)C3)cc21` [Example 308]: 0.702 nM, 88.5%, 0.646 nM and 64.88%.
Consider `Cc1cc2cc(n1)-c1cnn(C)c1OCCC[C@@H](C)CN1/C(=N/C2=O)Nc2ccc(C(=O)N(C)[C@H]3CCN(CCNc4cc(F)c([C@H]5CCC(=O)NC5=O)c(F)c4)C[C@@H]3F)cc21` [Example 352, (R,E)-N—((3S,4S)-1-(2-((4-((R)-2,6-dioxopiperidin-3-yl)-3,5-difluorophenyl)amino)ethyl)-3-fluoropiperidin-4-yl)-N,1^1,2^6,7-tetramethyl-3-oxo-5^2,5^3-dihydro-1^1H,5^1H-11-oxa-4-aza-5(2,1)-benzo[d]imidazola-2(2,4)-pyridina-1(4,5)-pyrazolacycloundecaphane-5^6-carboxamide], for which, at L858R/T790M/C797S EGFR, half-maximal degradation (DC50) was put at 0.847 nM and the Dmax was 85.6%. Besides, in the experiment with Del19/T790M/C797S EGFR, the DC50 amounted to 0.814 nM and the “Dmax (%)” value is recorded as 79.43%.
On L858R/T790M/C797S EGFR, `Cc1cc2cc(n1)-c1cnn(C)c1OCCC[C@@H](C)CN1/C(=N/C2=O)Nc2ccc(N3CC4(CCN(CC5CN(c6cc(F)c([C@H]7CCC(=O)NC7=O)c(F)c6)C5)CC4)CC3=O)cc21` [Example 406, (R)-3-(2,6-difluoro-4-(3-((3-oxo-2-((R,E)-1^1,2^6,7-trimethyl-3-oxo-5^2,5^3-dihydro-1^1H,5^1H-11-oxa-4-aza-5(2,1)-benzo[d]imidazola-2(2,4)-pyridina-1(4,5)-pyrazolacycloundecaphane-5^6-yl)-2,8-diazaspiro[4.5]decan-8-yl)methyl)azetidin-1-yl)phenyl)piperidine-2,6-dione] showed a DC50 of 1.65 nM and a Dmax of 89.6%. In the experiment on Del19/T790M/C797S EGFR, the DC50 stood at 1.09 nM and the “Dmax (%)” value is 85.15%.
For `Cc1cc2cc(n1)-c1cnn(C)c1OCCC[C@@H](C)CN1/C(=N/C2=O)Nc2ccc(C(=O)N3CC(N(C)CCc4cc(F)c([C@H]5CCC(=O)NC5=O)c(F)c4)C3)cc21` [Example 306, (R)-3-(2,6-difluoro-4-(2-(methyl(1-((R,E)-1^1,2^6,7-trimethyl-3-oxo-5^2,5^3-dihydro-1^1H,5^1H-11-oxa-4-aza-5(2,1)-benzo[d]imidazola-2(2,4)-pyridina-1(4,5)-pyrazolacycloundecaphane-5^6-carbonyl)azetidin-3-yl)amino)ethyl)phenyl)piperidine-2,6-dione] the same measures were 0.742 nM, 84.3%, 0.614 nM and 63.09%.
For `CCN(CCN1CCN(c2cc(F)c([C@H]3CCC(=O)NC3=O)c(F)c2)CC1)C(=O)c1ccc2c(c1)N1C[C@H](C)CCCOc3c(cnn3C)-c3cc(cc(C)n3)C(=O)/N=C/1N2` [Example 281, (R,E)-N-(2-(4-(4-((R)-2,6-dioxopiperidin-3-yl)-3,5-difluorophenyl)piperazin-1-yl)ethyl)-N-ethyl-1′,2^6,7-trimethyl-3-oxo-5^2,5^3-dihydro-1^1H,5^1H-11-oxa-4-aza-5(2,1)-benzo[d]imidazola-2(2,4)-pyridina-1(4,5)-pyrazolacycloundecaphane-5^6-carboxamide] the same measures were 0.411 nM, 90.4%, 0.501 nM and 75.01%.
For `Cc1cc2cc(n1)-c1cnn(C)c1OCCC[C@@H](C)CN1/C(=N/C2=O)Nc2ccc(C(=O)N[C@H]3CCN(CCc4cc(F)c([C@H]5CCC(=O)NC5=O)c(F)c4)C[C@@H]3F)cc21` [Example 342, (R,E)-N—((3S,4S)-1-(4-((R)-2,6-dioxopiperidin-3-yl)-3,5-difluorophenethyl)-3-fluoropiperidin-4-yl)-1^1,2^6,7-trimethyl-3-oxo-5^2,5^3-dihydro-1^1H,5^1H-11-oxa-4-aza-5(2,1)-benzo[d]imidazola-2(2,4)-pyridina-1(4,5)-pyrazolacycloundecaphane-5^6-carboxamide] the same measures were 0.62 nM, 90.8%, 0.607 nM and 77.52%.
For the molecule `Cc1cc2cc(n1)-c1cnn(C)c1OCCC[C@@H](C)CN1/C(=N/C2=O)Nc2ccc(N3CCN(CCc4cc(F)c([C@H]5CCC(=O)NC5=O)c(F)c4)CC3=O)cc21` [Example 366, (R)-3-(2,6-difluoro-4-(2-(3-oxo-4-((R,E)-1^1,2^6,7-trimethyl-3-oxo-5^2,5^3-dihydro-1^1H,5^1H-11-oxa-4-aza-5(2,1)-benzo[d]imidazola-2(2,4)-pyridina-1(4,5)-pyrazolacycloundecaphane-5^6-yl)piperazin-1-yl)ethyl)phenyl)piperidine-2,6-dione], at L858R/T790M/C797S EGFR, it took 0.372 nM to reach half-maximal degradation (DC50) and the Dmax was 91.8%. For the same molecule, in the experiment on Del19/T790M/C797S EGFR, it took 0.539 nM to reach half-maximal degradation (DC50) and the “Dmax (%)” value turned out to be 84.74%.

These data come from patent US20240342292A1, “Compounds for the Degradation of EGFR Kinase” (BeiGene Switzerland GmbH, priority 2021, published 2024).
